Test results reported in ChEMBL document CHEMBL3351354, “From the covalent linkage of drugs to novel inhibitors of ribonucleotide reductase: synthesis and biological evaluation of valproic esters of 3'-C-methyladenosine” (Bioorg Med Chem Lett, 2014).
Activity calls are given as the source filed them. The calls are words filed in the database; no cut-off is given here.

Experiments:
[1] = target: Histone deacetylase (Homo sapiens) (UniProt Q13547+O15379+Q9UBN7+Q92769+Q9UQL6+Q8WUI4+Q9BY41+Q96DB2+P56524+Q9UKV0+Q969S8); test: Inhibition of HDAC in human HL60 cells assessed as increase in histone H3 acetylation at 1 mM after 24 hrs by Western blotting method; format: cell-based; settings: HL-60
[2] = Growth inhibition of human HL60 cells after 48 hrs by MTT assay; format: functional, cell-based, HL-60
HL-60 [3] = test: Induction of ROS generation in human HL60 cells at 50 and 100 uM after 24 hrs by DCFH-DA staining based flow cytometry; format: functional, cell-based
HL-60 [4] = test: Induction of cell cycle arrest in human HL60 cells assessed as accumulation at S phase at 5 mM after 24 hrs by propidium iodide staining based flow cytometry (reference value: 54%); format: functional
HL-60 [5] = test: Induction of cell cycle arrest in human HL60 cells assessed as accumulation at G1 phase at 5 mM after 24 hrs by propidium iodide staining based flow cytometry (reference value: 32%); format: functional
HeLa = test: Growth inhibition of human HeLa cells after 48 hrs by MTT assay; format: functional, cell-based
HT-29 = test: Growth inhibition of human HT-29 cells after 48 hrs by MTT assay; format: functional, cell-based
HL-60 [6] = test: Induction of cell cycle arrest in human HL60 cells assessed as accumulation at G1 phase at 2 mM after 24 hrs by propidium iodide staining based flow cytometry (reference value: 32%); format: functional
[7] = Growth inhibition of human Caco2 cells after 48 hrs by MTT assay; format: functional, cell-based, Caco-2
HuT78 = test: Growth inhibition of human HUT78 cells after 48 hrs by MTT assay; format: functional, cell-based
K562 = test: Growth inhibition of human K562 cells after 48 hrs by MTT assay; format: functional, cell-based
MCF7 = test: Growth inhibition of human MCF7 cells after 48 hrs by MTT assay; format: functional, cell-based
HL-60 [8] = test: Induction of cell cycle arrest in human HL60 cells assessed as accumulation at S phase at 2 mM after 24 hrs by propidium iodide staining based flow cytometry (reference value: 54%); format: functional
HL-60 [9] = test: Induction of apoptosis in human HL60 cells after 24 to 48 hrs by acridine orange and ethidium bromide staining based fluorescence microscopy; format: functional, cell-based; settings: Homo sapiens, HL-60; read-out: AC50
HL-60 [10] = test: Induction of cell cycle arrest in human HL60 cells assessed as accumulation at G2M phase at 2 mM after 24 hrs by propidium iodide staining based flow cytometry (reference value: 12%); format: functional
[11] = Cytotoxicity against human HL60 cells after 24 to 48 hrs by trypan blue dye exclusion method; format: functional, cell-based; settings: HL-60
HL-60 [12] = test: Induction of cell cycle arrest in human HL60 cells assessed as accumulation at G2M phase at 5 mM after 24 hrs by propidium iodide staining based flow cytometry (reference value: 12%); format: functional
HL-60 [13] = test: Induction of cell cycle arrest in human HL60 cells assessed as accumulation at G1 phase at 20 uM after 24 hrs by propidium iodide staining based flow cytometry (reference value: 32%); format: functional
HL-60 [14] = test: Cytotoxicity against human HL60 cells at 20 to 100 uM after 24 to 48 hrs in presence of 2 mM VPA by trypan blue dye exclusion method; format: functional, cell-based
HL-60 [15] = test: Induction of apoptosis in human HL60 cells at 20 uM in presence of 1 mM VPA after 24 to 48 hrs by acridine orange and ethidium bromide staining based fluorescence microscopy; format: functional, cell-based
HL-60 [16] = test: Induction of cell cycle arrest in human HL60 cells assessed as accumulation at S phase at 20 uM in presence of 2 mM VPA after 24 hrs by propidium iodide staining based flow cytometry (reference value: 54%); format: functional
HL-60 [17] = test: Induction of cell cycle arrest in human HL60 cells assessed as accumulation at G1 phase at 20 uM in presence of 2 mM VPA after 24 hrs by propidium iodide staining based flow cytometry (reference value: 32%); format: functional
HL-60 [18] = test: Induction of cell cycle arrest in human HL60 cells assessed as accumulation at S phase at 20 uM after 24 hrs by propidium iodide staining based flow cytometry (reference value: 54%); format: functional
[19] = Half life in RPMI-1640 medium containing 10% fetal calf serum assessed as compound disappearance by HPLC-DAD-ESI-MS method; format: ADME, Bos taurus; settings: cattle
HL-60 [20] = test: Induction of apoptosis in human HL60 cells at 20 uM in presence of 2 mM VPA after 24 to 48 hrs by acridine orange and ethidium bromide staining based fluorescence microscopy; format: functional
HL-60 [21] = test: Induction of cell cycle arrest in human HL60 cells assessed as accumulation at G2M phase at 20 uM after 24 hrs by propidium iodide staining based flow cytometry (reference value: 12%); format: functional
HL-60 [22] = test: Induction of cell cycle arrest in human HL60 cells assessed as accumulation at G2M phase at 20 uM in presence of 2 mM VPA after 24 hrs by propidium iodide staining based flow cytometry (reference value: 12%); format: functional
HL-60 [23] = test: Cytotoxicity against human HL60 cells at 20 to 100 uM after 24 to 48 hrs in presence of 1 mM VPA by trypan blue dye exclusion method; format: functional, cell-based
[24] = Homo sapiens, HL-60, 48 h, read-out: IC50
[25] = Homo sapiens, HeLa, 48 h, read-out: IC50
[26] = Homo sapiens, HT-29, 48 h, read-out: IC50
[27] = Homo sapiens, Caco-2, 48 h, read-out: IC50
[28] = Homo sapiens, HuT78, 48 h, read-out: IC50
[29] = Homo sapiens, K562, 48 h, read-out: IC50
[30] = Homo sapiens, MCF7, 48 h, read-out: IC50

With `CCCC(CCC)C(=O)O` [VALPROIC ACID] the inhibition [1] was “Active”, the IC50 [2, 24] was 1700 µM and the Activity (HL-60 [3]) was “inactive”. It also gave an Activity (HL-60 [4]) of 5%, an Activity (HL-60 [5]) of 39% and an IC50 (HeLa; [25]) of 1000 µM. The IC50 (HT-29; [26]) was > 1000 µM, the Activity (HL-60 [6]) was 78% and the IC50 [7, 27] was > 1000 µM. The IC50 (HuT78; [28]) was 1800 µM, the IC50 (K562; [29]) was > 1000 µM and the IC50 (MCF7; [30]) was 230 µM. It also gave an Activity (HL-60 [8]) of 8%, an AC50 (HL-60 [9]) of 2500 µM and an Activity (HL-60 [10]) of 14%. The IC50 [11] was 1700 µM and the Activity (HL-60 [12]) was 55%.
In the case of `C[C@@]1(O)[C@@H](CO)O[C@@H](n2cnc3c(N)ncnc32)[C@@H]1O`, the Activity (HL-60 [13]) is reported as 31%, the IC50 [2, 24] is reported as 15.6 µM and the Activity (HL-60 [14]) is reported as “Active”. For the same compound, the Activity (HL-60 [15]) was “Active”, the IC50 (HeLa; [25]) was 23.3 µM and the IC50 (HT-29; [26]) was 26.1 µM. The Activity (HL-60 [16]) was 61%, the Activity (HL-60 [17]) was 28% and the IC50 [7, 27] was 24.3 µM. The IC50 (HuT78; [28]) was 17.3 µM, the IC50 (K562; [29]) was 9.4 µM and the IC50 (MCF7; [30]) was 22.4 µM. It also gave an Activity (HL-60 [18]) of 60%, an AC50 (HL-60 [9]) of 75 µM and a half-life [19] of 43.5 h. The Activity (HL-60 [20]) was 90%, the Activity (HL-60 [21]) was 9% and the IC50 [11] was 15 µM. For the same compound, the Activity (HL-60 [22]) was 11% and the Activity (HL-60 [23]) was “inactive”.
For `CCCC(CCC)C(=O)Nc1ncnc2c1ncn2[C@@H]1O[C@H](COC(=O)C(CCC)CCC)[C@@](C)(O)[C@H]1OC(=O)C(CCC)CCC`, the IC50 ([2]; hl-60) was “ND(Insoluble)”, the IC50 (HeLa; hela) was “ND(Insoluble)” and the IC50 (HT-29; ht-29) was “ND(Insoluble)”. For the same compound, the IC50 ([7]; caco-2) was “ND(Insoluble)”, the IC50 (HuT78; hut78) was “ND(Insoluble)” and the IC50 (K562; k562) was “ND(Insoluble)”. For the same compound, the IC50 (MCF7; mcf7) was “ND(Insoluble)”.
